{"source": "PubChem BioAssay (NCI)", "assay_in_all_cases": "growth of human tumour cells (NCI), 48 h", "key": {"[1]": {"test_system": "NCI-H23 lung"}, "[2]": {"test_system": "NCI-H460 lung"}, "[3]": {"test_system": "NCI-H522 lung"}, "[4]": {"test_system": "NCI/ADR-RES ovarian"}, "[5]": {"test_system": "OVCAR-3 ovarian"}, "[6]": {"test_system": "OVCAR-4 ovarian"}, "[7]": {"test_system": "OVCAR-5 ovarian"}, "[8]": {"test_system": "OVCAR-8 ovarian"}, "[9]": {"test_system": "PC-3 prostate"}, "[10]": {"test_system": "RPMI-8226 leukemia"}, "[11]": {"test_system": "RXF 393 renal"}, "[12]": {"test_system": "SF-268 CNS"}, "[13]": {"test_system": "SF-295 CNS"}, "[14]": {"test_system": "SF-539 CNS"}, "[15]": {"test_system": "SK-MEL-2 melanoma"}, "[16]": {"test_system": "SK-MEL-28 melanoma"}, "[17]": {"test_system": "SK-MEL-5 melanoma"}, "[18]": {"test_system": "SK-OV-3 ovarian"}, "[19]": {"test_system": "SN12C renal"}, "[20]": {"test_system": "SNB-19 CNS"}, "[21]": {"test_system": "SNB-75 CNS"}, "[22]": {"test_system": "SR leukemia"}, "[23]": {"test_system": "SW-620 colon"}, "[24]": {"test_system": "T-47D breast"}, "[25]": {"test_system": "TK-10 renal"}, "[26]": {"test_system": "U251 CNS"}, "[27]": {"test_system": "UACC-257 melanoma"}, "[28]": {"test_system": "UACC-62 melanoma"}, "[29]": {"test_system": "UO-31 renal"}}, "note": "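Method: 48-hour compound exposure of cells in 96-well plates, five concentrations, linear interpolation of endpoints. GI50: concentration for 50% inhibition of growth. At the TGI there is no net growth.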"}
{"smiles": "COC1CCC(OC)C(c2nc3sccn3c2/C=N/N=C(N)N)C1", "note": "(stereo not drawn)", "values": [{"measurement": "GI50", "setting": "[1]", "value": 3.69, "unit": "µM"}, {"measurement": "TGI", "setting": "[1]", "value": "> 35.5", "unit": "µM"}, {"measurement": "GI50", "setting": "[2]", "value": 27.7, "unit": "µM"}, {"measurement": "TGI", "setting": "[2]", "value": "> 76.5", "unit": "µM"}, {"measurement": "GI50", "setting": "[3]", "value": 30.4, "unit": "µM"}, {"measurement": "TGI", "setting": "[3]", "value": "> 72.2", "unit": "µM"}, {"measurement": "GI50", "setting": "[4]", "value": "> 100", "unit": "µM"}, {"measurement": "TGI", "setting": "[4]", "value": "> 100", "unit": "µM"}, {"measurement": "GI50", "setting": "[5]", "value": 7.76, "unit": "µM"}, {"measurement": "TGI", "setting": "[5]", "value": 36.3, "unit": "µM"}, {"measurement": "GI50", "setting": "[6]", "value": 43.5, "unit": "µM"}, {"measurement": "TGI", "setting": "[6]", "value": "> 100", "unit": "µM"}, {"measurement": "GI50", "setting": "[7]", "value": 2.84, "unit": "µM"}, {"measurement": "TGI", "setting": "[7]", "value": "> 51.7", "unit": "µM"}, {"measurement": "GI50", "setting": "[8]", "value": 22.1, "unit": "µM"}, {"measurement": "TGI", "setting": "[8]", "value": 55.6, "unit": "µM"}, {"measurement": "GI50", "setting": "[9]", "value": 25, "unit": "µM"}, {"measurement": "TGI", "setting": "[9]", "value": "> 65.4", "unit": "µM"}, {"measurement": "GI50", "setting": "[10]", "value": 4.18, "unit": "µM"}, {"measurement": "TGI", "setting": "[10]", "value": 43.9, "unit": "µM"}, {"measurement": "GI50", "setting": "[11]", "value": 24.8, "unit": "µM"}, {"measurement": "TGI", "setting": "[11]", "value": "> 82.9", "unit": "µM"}, {"measurement": "GI50", "setting": "[12]", "value": 18.5, "unit": "µM"}, {"measurement": "TGI", "setting": "[12]", "value": 45.8, "unit": "µM"}, {"measurement": "GI50", "setting": "[13]", "value": 16.5, "unit": "µM"}, {"measurement": "TGI", "setting": "[13]", "value": 34.1, "unit": "µM"}, {"measurement": "GI50", "setting": "[14]", "value": 20.4, "unit": "µM"}, {"measurement": "TGI", "setting": "[14]", "value": 44, "unit": "µM"}, {"measurement": "GI50", "setting": "[15]", "value": 25.7, "unit": "µM"}, {"measurement": "TGI", "setting": "[15]", "value": "> 62.4", "unit": "µM"}, {"measurement": "GI50", "setting": "[16]", "value": 34.9, "unit": "µM"}, {"measurement": "TGI", "setting": "[16]", "value": "> 94.4", "unit": "µM"}, {"measurement": "GI50", "setting": "[17]", "value": 20.2, "unit": "µM"}, {"measurement": "TGI", "setting": "[17]", "value": 54.3, "unit": "µM"}, {"measurement": "GI50", "setting": "[18]", "value": 47.1, "unit": "µM"}, {"measurement": "TGI", "setting": "[18]", "value": "> 100", "unit": "µM"}, {"measurement": "GI50", "setting": "[19]", "value": 22.4, "unit": "µM"}, {"measurement": "TGI", "setting": "[19]", "value": 56.3, "unit": "µM"}, {"measurement": "GI50", "setting": "[20]", "value": 33.8, "unit": "µM"}, {"measurement": "TGI", "setting": "[20]", "value": "> 96.4", "unit": "µM"}, {"measurement": "GI50", "setting": "[21]", "value": 6.44, "unit": "µM"}, {"measurement": "TGI", "setting": "[21]", "value": "> 77.2", "unit": "µM"}, {"measurement": "GI50", "setting": "[22]", "value": 0.0201, "unit": "µM"}, {"measurement": "TGI", "setting": "[22]", "value": 15, "unit": "µM"}, {"measurement": "GI50", "setting": "[23]", "value": 19.4, "unit": "µM"}, {"measurement": "TGI", "setting": "[23]", "value": 53.1, "unit": "µM"}, {"measurement": "GI50", "setting": "[24]", "value": 31.9, "unit": "µM"}, {"measurement": "TGI", "setting": "[24]", "value": "> 65.4", "unit": "µM"}, {"measurement": "GI50", "setting": "[25]", "value": "> 52.1", "unit": "µM"}, {"measurement": "TGI", "setting": "[25]", "value": "> 81.4", "unit": "µM"}, {"measurement": "GI50", "setting": "[26]", "value": 38.7, "unit": "µM"}, {"measurement": "TGI", "setting": "[26]", "value": 73.4, "unit": "µM"}, {"measurement": "GI50", "setting": "[27]", "value": 5.61, "unit": "µM"}, {"measurement": "TGI", "setting": "[27]", "value": 44.1, "unit": "µM"}, {"measurement": "GI50", "setting": "[28]", "value": 16.6, "unit": "µM"}, {"measurement": "TGI", "setting": "[28]", "value": 32.4, "unit": "µM"}, {"measurement": "GI50", "setting": "[29]", "value": "> 67.5", "unit": "µM"}, {"measurement": "TGI", "setting": "[29]", "value": "> 100", "unit": "µM"}]}
